In publication PMC12645191, “Dicarboxylate and dicarboxylic acid appended supramolecular self-associating amphiphiles as antimicrobial agents against high priority bacterial pathogens” (Organic & Biomolecular Chemistry, 2025):

Tests used:
[1] = tested on: all Gram-positive bacteria tested; experiment: inhibition of bacterial growth, span over the Gram-positive panel; assay type: cell-based, S. aureus, E. faecalis, E. faecium; settings: SSA 5.0 mM, 20 hours; read-out: inhibition against all Gram-positive bacteria tested (span)
Method: With the self-associative properties of 1–10 established, the antimicrobial activity of these SSAs were determined against a panel of clinically relevant, high-priority pathogens including: P. aeruginosa PAO1; Klebsiella pneumonia (K. pneumoniae) M6; E. coli NCTC 12923; Acinetobacter baumannii (A. baumannii) ATCC 17978; S. aureus ATCC 9144; Enterococcus faecalis (E. faecalis) NCTC 775; and Enterococcus faecium (E. faecium) NCTC 12204. […] However, it should be noted that the SSA stock solution was prepared in a H2O 5% EtOH solution, to ensure that the SSA aggregates formed were in line with those characterised within the scope of the SSA self-association studies.
Section 3: Biological methods
These methods were taken directly from UK Health and Security Office (UKHSA) standard […]
Preparation of Luria Broth media (LB): Yeast extract (5.0 g), tryptone (10.0 g) and sodium chloride (10.0 g) were dissolved in dH₂O (1.0 L) then divided into bottles and autoclaved.
Preparation of Luria Broth (LB) agar plates: Agar (6.0 g) was added to LB (400 mL) and autoclaved. […]
Preparation of 96 well microplate for MIC50: The 1:100 cell suspension (150 µL) was dispensed into individual wells under sterile conditions. […] The plates were sealed using parafilm, then incubated at 37 °C in a microplate reader for 20 hours. […]

Caco-2 cell line = experiment: bi-directional permeability in Caco-2 cell line; assay type: in vitro ADME, human
Method: Metabolic stability was assessed in mouse and rat liver microsomes. Microsomes are subcellular fractions of hepatocytes and contain CYP450s, the predominant enzymes involved in first-pass metabolism.[66] […] A plasma protein binding assay was performed to assess the extent of compound binding to plasma proteins. This is key as only unbound compound is free to distribute and exert a pharmacological effect. […] To assess the potential for this sub-class of SSAs to be developed as drugs for oral administration, Caco-2 permeability assays were also performed, as a cellular model indicative of human intestinal permeability. […]
Sample analysis was by electrospray ionisation. […]
Bi-directional Permeability in Caco-2 Cell Line:
The bi-directional permeability in Caco-2 cell lines was determined by seeding cells onto an HTS Transwell plate. Cells were cultivated for 14-18 days in a cell culture incubator at 37 °C, 5 % CO2, 95 % relative humidity. Cell culture medium was replaced every other day. To assess monolayer integrity the transepithelial electrical resistance (TEER) across the monolayer was measured using Millicell Epithelial volt-ohm meter prior to assay and Lucifer yellow (LY) fluorescence measurement post-assay.
Test and control compounds were prepared in DMSO and diluted in Hank’s Balanced Saline […]
Solution (HBSS, pH 7.4) to a final concentration of 5 or 10 µM. Compound was added to the […]
donor compartment of the transwell plate for both apical to basolateral (A>B) and basolateral […]
to apical (B>A) measurements, with blank HBSS being added to the receiver compartment.
The transwell plate was then incubated at 37 °C, 5 % CO2 for 2 hours.

[2] = Caco-2, 5 or 10 µM, HBSS pH 7.4, 2 hours

Efflux Ratio (Caco-2 cell line; Caco-2): 1.71 | Recovery (%) AP-BL (Caco-2 cell line; Caco-2): 99.71% | Recovery (%) BL-AP (Caco-2 cell line; Caco-2): 80.26% | Papp (A-B) (Caco-2 cell line; [2]): 0.14 10-6, cm/s | Papp (B-A) (Caco-2 cell line; [2]): 0.24 10-6, cm/s
SMILES: O=C(O)CC[C@H](NC(=O)Nc1ccc(C(F)(F)F)cc1)C(=O)O [SSA 2]
inhibition at 5000 µM [1]: 22 to 80%
